Key:
Colletotrichum truncatum [1] = assay: Fungicidal activity against Colletotrichum capsici assessed as inhibition of mycelial growth; assay type: functional
Colletotrichum truncatum [2] = assay: Fungicidal activity against Colletotrichum capsici assessed as reduction of polygalacturonase production at 1 ug/ml incubated for 10 days measured up to 120 min by Ostwald-Fenske viscometric analysis (reference value: 45.3%); assay type: functional; set-up: scale not given: the % may be the effect or the level left
Colletotrichum truncatum [3] = assay: Fungicidal activity against Colletotrichum capsici infected chilli plant assessed as percent disease index at 0.1% applied as spray on day 10 post inoculation and twice every 20 days measured on day 155 post sowing in green house conditions (reference value: 62.5 to 68.6%); assay type: functional
Colletotrichum truncatum [4] = assay: Fungicidal activity against Colletotrichum capsici assessed as spore germination at 0.5 ug/ml after 48 to 96 hr (reference value: 70.2 CFU); assay type: functional
Colletotrichum truncatum [5] = assay: Fungicidal activity against Colletotrichum capsici assessed as mycelial biomass at 50 ug/ml incubated 16 hr photoperiod for 20 days (reference value: 675 mg); assay type: functional
Colletotrichum truncatum [6] = assay: Fungicidal activity against Colletotrichum capsici infected chilli plant assessed as percent disease index at 0.1% applied as spray on day 10 post inoculation and twice every 20 days measured on day 155 post sowing in field conditions (reference value: 51 to 56.5%); assay type: functional
Colletotrichum truncatum [7] = assay: Fungicidal activity against Colletotrichum capsici assessed as inhibition of spore germination at 0.1 ug/ml after 48 to 96 hr relative to control; assay type: functional
Colletotrichum truncatum [8] = assay: Fungicidal activity against Colletotrichum capsici infected chilli plant assessed as fruit yield measured per plot at 0.1% applied as spray on day 10 post inoculation and twice every 20 days measured on day 155 post sowing in field conditions (reference value: 8.25 to 9.3 kg); assay type: functional
Colletotrichum truncatum [9] = assay: Fungicidal activity against Colletotrichum capsici assessed as linear growth at 50 ug/ml incubated 16 hr photoperiod for 20 days (reference value: 90 mm); assay type: functional
Colletotrichum truncatum [10] = assay: Fungicidal activity against Colletotrichum capsici assessed as sporulation at 25 ug/ml incubated 16 hr photoperiod for 20 days by haemocytometer (reference value: 0.081 x 10^6 ml'-1); assay type: functional
Colletotrichum truncatum [11] = assay: Fungicidal activity against Colletotrichum capsici assessed as mycelial biomass at 0.5 ug/ml incubated 16 hr photoperiod for 20 days (reference value: 675 mg); assay type: functional
Colletotrichum truncatum [12] = assay: Fungicidal activity against Colletotrichum capsici assessed as spore germination at 10 ug/ml after 48 to 96 hr (reference value: 70.2 CFU); assay type: functional
Colletotrichum truncatum [13] = assay: Fungicidal activity against Colletotrichum capsici assessed as mycelial biomass at 5 ug/ml incubated 16 hr photoperiod for 20 days (reference value: 675 mg); assay type: functional
Colletotrichum truncatum [14] = assay: Fungicidal activity against Colletotrichum capsici assessed as sporulation at 0.1 ug/ml incubated 16 hr photoperiod for 20 days by haemocytometer (reference value: 0.081 x 10^6 ml'-1); assay type: functional
Colletotrichum truncatum [15] = assay: Fungicidal activity against Colletotrichum capsici infected chilli plant assessed as fruit length at 0.1% applied as spray on day 10 post inoculation and twice every 20 days measured on day 155 post sowing in green house conditions (reference value: 6.8 to 7 cm); assay type: functional
Colletotrichum truncatum [16] = assay: Fungicidal activity against Colletotrichum capsici assessed as linear growth at 25 ug/ml incubated 16 hr photoperiod for 20 days (reference value: 90 mm); assay type: functional
Colletotrichum truncatum [17] = assay: Fungicidal activity against Colletotrichum capsici infected chilli plant assessed as fruit length measured per plot at 0.1% applied as spray on day 10 post inoculation and twice every 20 days measured on day 155 post sowing in field conditions (reference value: 8 to 8.7 cm); assay type: functional
Colletotrichum truncatum [18] = assay: Fungicidal activity against Colletotrichum capsici assessed as spore germination at 1 ug/ml after 48 to 96 hr (reference value: 70.2 CFU); assay type: functional
Colletotrichum truncatum [19] = assay: Fungicidal activity against Colletotrichum capsici assessed as linear growth at 0.5 ug/ml incubated 16 hr photoperiod for 20 days (reference value: 90 mm); assay type: functional
Colletotrichum truncatum [20] = assay: Fungicidal activity against Colletotrichum capsici assessed as sporulation at 1 ug/ml incubated 16 hr photoperiod for 20 days by haemocytometer (reference value: 0.081 x 10^6 ml'-1); assay type: functional
Colletotrichum truncatum [21] = assay: Fungicidal activity against Colletotrichum capsici assessed as linear growth at 1 ug/ml incubated 16 hr photoperiod for 20 days (reference value: 90 mm); assay type: functional
Capsicum annuum = assay: Phytotoxicity in Capsicum annuum (pepper) at 0.1% applied as spray; assay type: organism-based; conditions: in vivo, other
Colletotrichum truncatum [22] = assay: Fungicidal activity against Colletotrichum capsici assessed as spore germination at 25 ug/ml after 48 to 96 hr (reference value: 70.2 CFU); assay type: functional
Colletotrichum truncatum [23] = assay: Fungicidal activity against Colletotrichum capsici assessed as mycelial biomass at 10 ug/ml incubated 16 hr photoperiod for 20 days (reference value: 675 mg); assay type: functional
Colletotrichum truncatum [24] = assay: Fungicidal activity against Colletotrichum capsici assessed as sporulation at 5 ug/ml incubated 16 hr photoperiod for 20 days by haemocytometer (reference value: 0.081 x 10^6 ml'-1); assay type: functional
Colletotrichum truncatum [25] = assay: Fungicidal activity against Colletotrichum capsici assessed as mycelial biomass at 1 ug/ml incubated 16 hr photoperiod for 20 days (reference value: 675 mg); assay type: functional
Colletotrichum truncatum [26] = assay: Fungicidal activity against Colletotrichum capsici assessed as mycelial biomass at 25 ug/ml incubated 16 hr photoperiod for 20 days (reference value: 675 mg); assay type: functional
Colletotrichum truncatum [27] = assay: Fungicidal activity against Colletotrichum capsici assessed as mycelial biomass at 0.1 ug/ml incubated 16 hr photoperiod for 20 days (reference value: 675 mg); assay type: functional
Colletotrichum truncatum [28] = assay: Fungicidal activity against Colletotrichum capsici assessed as linear growth at 0.1 ug/ml incubated 16 hr photoperiod for 20 days (reference value: 90 mm); assay type: functional
Colletotrichum truncatum [29] = assay: Fungicidal activity against Colletotrichum capsici assessed as spore germination at 5 ug/ml after 48 to 96 hr (reference value: 70.2 CFU); assay type: functional
Colletotrichum truncatum [30] = assay: Fungicidal activity against Colletotrichum capsici assessed as sporulation at 10 ug/ml incubated 16 hr photoperiod for 20 days by haemocytometer (reference value: 0.081 x 10^6 ml'-1); assay type: functional
Colletotrichum truncatum [31] = assay: Fungicidal activity against Colletotrichum capsici assessed as linear growth at 10 ug/ml incubated 16 hr photoperiod for 20 days (reference value: 90 mm); assay type: functional
Colletotrichum truncatum [32] = assay: Fungicidal activity against Colletotrichum capsici assessed as sporulation at 50 ug/ml incubated 16 hr photoperiod for 20 days by haemocytometer (reference value: 0.081 x 10^6 ml'-1); assay type: functional
Colletotrichum truncatum [33] = assay: Fungicidal activity against Colletotrichum capsici assessed as reduction of pectin trans-eliminase production at 1 ug/ml incubated for 10 days measured up to 120 min by Ostwald-Fenske viscometric analysis (reference value: 38.5%); assay type: functional; set-up: scale not given: the % may be the effect or the level left
Colletotrichum truncatum [34] = assay: Fungicidal activity against Colletotrichum capsici assessed as spore germination at 50 ug/ml after 48 to 96 hr (reference value: 70.2 CFU); assay type: functional
Colletotrichum truncatum [35] = assay: Fungicidal activity against Colletotrichum capsici assessed as linear growth at 5 ug/ml incubated 16 hr photoperiod for 20 days (reference value: 90 mm); assay type: functional
Colletotrichum truncatum [36] = assay: Fungicidal activity against Colletotrichum capsici assessed as reduction of polygalacturonase trans-eliminase production at 1 ug/ml incubated for 10 days measured up to 120 min by Ostwald-Fenske viscometric analysis (reference value: 40.8%); assay type: functional; set-up: scale not given: the % may be the effect or the level left
Colletotrichum truncatum [37] = assay: Fungicidal activity against Colletotrichum capsici assessed as sporulation at 0.5 ug/ml incubated 16 hr photoperiod for 20 days by haemocytometer (reference value: 0.081 x 10^6 ml'-1); assay type: functional
Colletotrichum truncatum [38] = assay: Fungicidal activity against Colletotrichum capsici infected chilli plant assessed as fruit mass measured per pot at 0.1% applied as spray on day 10 post inoculation and twice every 20 days measured on day 155 post sowing in green house conditions (reference value: 85.3 to 94.5 g); assay type: functional

CC(C)(C)C(O)C(Oc1ccc(-c2ccccc2)cc1)n1cncn1 (configuration not stated) [BITERTANOL]
ED50 (Colletotrichum truncatum [1]): <5 ugAi/ml

COC(=O)Nc1nc2ccccc2[nH]1 [CARBENDAZIM]
Activity (Colletotrichum truncatum [2]): 13.5% | PDI (Colletotrichum truncatum [3]): 27.7% | CFU (Colletotrichum truncatum [4]): 32.2 | Activity (Colletotrichum truncatum [5]): 0 mg | PDI (Colletotrichum truncatum [6]): 27.5% | inhibition at 0.1 µg/mL (Colletotrichum truncatum [7]): 35% | Crop_yield (Colletotrichum truncatum [8]): 11.25 kg | Activity (Colletotrichum truncatum [9]): 9 mm | Activity (Colletotrichum truncatum [10]): 0 ×10⁶ /ml | Activity (Colletotrichum truncatum [11]): 405 mg | CFU (Colletotrichum truncatum [12]): 0 | Activity (Colletotrichum truncatum [13]): 186 mg | Activity (Colletotrichum truncatum [14]): 3.53 ×10⁶ /ml | Activity (Colletotrichum truncatum [15]): 7.3 cm | Activity (Colletotrichum truncatum [16]): 9 mm | Activity (Colletotrichum truncatum [17]): 8.5 cm | CFU (Colletotrichum truncatum [18]): 10.3 | Activity (Colletotrichum truncatum [19]): 66.3 mm | Activity (Colletotrichum truncatum [20]): 1.49 ×10⁶ /ml | Activity (Colletotrichum truncatum [21]): 45.8 mm | Activity (Capsicum annuum): Non-toxic | CFU (Colletotrichum truncatum [22]): 0 | Activity (Colletotrichum truncatum [23]): 82 mg | Activity (Colletotrichum truncatum [24]): 1.03 ×10⁶ /ml | Activity (Colletotrichum truncatum [25]): 304 mg | Activity (Colletotrichum truncatum [26]): 46 mg | Activity (Colletotrichum truncatum [27]): 570 mg | Activity (Colletotrichum truncatum [28]): 85.5 mm | CFU (Colletotrichum truncatum [29]): 3.2 | Activity (Colletotrichum truncatum [30]): 0 ×10⁶ /ml | Activity (Colletotrichum truncatum [31]): 21.3 mm | Activity (Colletotrichum truncatum [32]): 0 ×10⁶ /ml | Activity (Colletotrichum truncatum [33]): 18% | CFU (Colletotrichum truncatum [34]): 0 | Activity (Colletotrichum truncatum [35]): 39.5 mm | Activity (Colletotrichum truncatum [36]): 19% | Activity (Colletotrichum truncatum [37]): 2.42 ×10⁶ /ml | Crop_yield (Colletotrichum truncatum [38]): 120.8 g

C=CCOC(Cn1ccnc1)c1ccc(Cl)cc1Cl (configuration not stated) [ENILCONAZOLE]
ED50 (Colletotrichum truncatum [1]): <5 ugAi/ml

CCCCC(O)(Cn1cncn1)c1ccc(Cl)cc1Cl (configuration not stated) [HEXACONAZOLE]
ED50 (Colletotrichum truncatum [1]): <5 ugAi/ml

c1ccc2[nH]c(-c3cscn3)nc2c1 [THIABENDAZOLE]
ED50 (Colletotrichum truncatum [1]): <5 ugAi/ml

From ChEMBL document CHEMBL3044635, “Effect of propiconazole and difenoconazole on the control of anthracnose of chilli fruits caused by Colletotrichum capsici” (Crop Prot, 2006)
